According to patent US20250084039A1, “4-SUBSTITUTED AMINOISOQUINOLINE DERIVATIVES” (Purdue Research Foundation, priority 2016, published 2025):
Like-named read-outs stand apart in the source and are kept apart here.

Tests used:
MOLM14 = assay: IC50 determination (proliferation assay, CellTiter-Blue); assay type: cell-based
How it was run: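 MOLM14 and MV4-11 cells seeded about 18 h before compound addition (DMSO-diluted), then 72 h exposure.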

FGFR1 = FGFR1 (Homo sapiens (Human), UniProt P11362); assay: Reaction Biology HotSpot kinase assay; assay type: biochemical; conditions: 500 nM compound; for inhibition at 0.5 µM: read-out: Percentage kinase inhibition FGFR1
How it was run: (§1)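 HotSpot 33P transfer format. Enzyme, substrate and 500 nM test compound sit together for 20 min, then labelled and unlabelled ATP totalling 100 μM are added and phosphorylation proceeds for 2 h at room temperature. Products are captured on P81 cellulose paper, and activity is expressed relative to DMSO.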

AXL = AXL (Homo sapiens (Human), UniProt P30530); assay: Reaction Biology HotSpot kinase assay; assay type: biochemical; conditions: 500 nM compound; for inhibition at 0.5 µM: read-out: Percentage kinase inhibition AXL
How it was run: (§2)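 Each compound was tested at 500 nM, with 33P incorporation from ATP (100 μM final, including [γ-33P]ATP) measured by P81 paper capture after a 2 h room-temperature reaction.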

EGFR = EGFR (Homo sapiens (Human), UniProt P00533); assay: Reaction Biology HotSpot kinase assay; assay type: biochemical; conditions: 500 nM compound; for inhibition at 0.5 µM: read-out: Percentage kinase inhibition EGFR
How it was run: (§3)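 Read-out is percent remaining kinase activity relative to a DMSO vehicle reaction. Compound was tested once at 500 nM and preincubated 20 min with kinase and substrate, then the reaction ran 2 h at room temperature with 100 μM final ATP spiked with [γ-33P]ATP before spotting onto P81 ion-exchange paper.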

c-MER = c-MER (Homo sapiens (Human), UniProt Q12866); assay: Reaction Biology HotSpot kinase assay; assay type: biochemical; conditions: 500 nM compound; for inhibition at 0.5 µM: read-out: Percentage kinase inhibition c-MER
How it was run: as §3

EPHB2 = EPHB2 (Homo sapiens (Human), UniProt P29323); assay: Reaction Biology HotSpot kinase assay; assay type: biochemical; conditions: 500 nM compound; for inhibition at 0.5 µM: read-out: Percentage kinase inhibition EPHB2
How it was run: as §3

FGR = FGR (Homo sapiens (Human), UniProt P09769); assay: Reaction Biology HotSpot kinase assay; assay type: biochemical; conditions: 500 nM compound; for inhibition at 0.5 µM: read-out: Percentage kinase inhibition FGR
How it was run: as §3

PDGFRa = PDGFRa (Homo sapiens (Human), UniProt P16234); assay: Reaction Biology HotSpot kinase assay; assay type: biochemical; conditions: 500 nM compound; for inhibition at 0.5 µM: read-out: Percentage kinase inhibition PDGFRa
How it was run: as §3

EPHA5 = EPHA5 (Homo sapiens (Human), UniProt P54756); assay: Reaction Biology HotSpot kinase assay; assay type: biochemical; conditions: 500 nM compound; for inhibition at 0.5 µM: read-out: Percentage kinase inhibition EPHA5
How it was run: as §3

AKT1 = AKT1 (Homo sapiens (Human), UniProt P31749); assay: Reaction Biology HotSpot kinase assay; assay type: biochemical; conditions: 500 nM compound; for inhibition at 0.5 µM: read-out: Percentage kinase inhibition AKT1
How it was run: as §1

FLT4/VEGFR3 = FLT4/VEGFR3 (Homo sapiens (Human), UniProt P35916); assay: Reaction Biology HotSpot kinase assay; assay type: biochemical; conditions: 500 nM compound; for inhibition at 0.5 µM: read-out: Percentage kinase inhibition FLT4/VEGFR3
How it was run: as §3

ERBB2/HER2 = ERBB2/HER2 (Homo sapiens (Human), UniProt P04626); assay: Reaction Biology HotSpot kinase assay; assay type: biochemical; conditions: 500 nM compound; for inhibition at 0.5 µM: read-out: Percentage kinase inhibition ERBB2/HER2
How it was run: as §3

KDR/VEGFR2 = KDR/VEGFR2 (Homo sapiens (Human), UniProt P35968); assay: Reaction Biology HotSpot kinase assay; assay type: biochemical; conditions: 500 nM compound; for inhibition at 0.5 µM: read-out: Percentage kinase inhibition KDR/VEGFR2
How it was run: as §3

TRKB = TRKB (Homo sapiens (Human), UniProt Q16620); assay: Reaction Biology HotSpot kinase assay; assay type: biochemical; conditions: 500 nM compound; for inhibition at 0.5 µM: read-out: Percentage kinase inhibition TRKB
How it was run: as §3

YES/YES1 = YES/YES1 (Homo sapiens (Human), UniProt P07947); assay: Reaction Biology HotSpot kinase assay; assay type: biochemical; conditions: 500 nM compound; for inhibition at 0.5 µM: read-out: Percentage kinase inhibition YES/YES1
How it was run: as §3

c-Met = c-Met (Homo sapiens (Human), UniProt P08581); assay: Reaction Biology HotSpot kinase assay; assay type: biochemical; conditions: 500 nM compound; for inhibition at 0.5 µM: read-out: Percentage kinase inhibition c-Met
How it was run: as §3

BRAF = BRAF (Homo sapiens (Human), UniProt P15056); assay: Reaction Biology HotSpot kinase assay; assay type: biochemical; conditions: 500 nM compound; for inhibition at 0.5 µM: read-out: Percentage kinase inhibition BRAF
How it was run: as §2

TIE2/TEK = TIE2/TEK (Homo sapiens (Human), UniProt Q02763); assay: Reaction Biology HotSpot kinase assay; assay type: biochemical; conditions: 500 nM compound; for inhibition at 0.5 µM: read-out: Percentage kinase inhibition TIE2/TEK
How it was run: as §3

ALK = ALK (Homo sapiens (Human), UniProt Q9UM73); assay: Reaction Biology HotSpot kinase assay; assay type: biochemical; conditions: 500 nM compound; for inhibition at 0.5 µM: read-out: Percentage kinase inhibition ALK
How it was run: as §3

FLT3 = FLT3 (Homo sapiens (Human), UniProt P36888); assay: Reaction Biology HotSpot kinase assay; assay type: biochemical; conditions: for inhibition at 0.5 µM: read-out: % inhibition of FLT3 activity
How it was run: as §1

ROS/ROS1 = ROS/ROS1 (Homo sapiens (Human), UniProt P08922); assay: Reaction Biology HotSpot kinase assay; assay type: biochemical; conditions: 500 nM compound; for inhibition at 0.5 µM: read-out: Percentage kinase inhibition ROS/ROS1
How it was run: as §3

PKCa = PKCa (Homo sapiens (Human), UniProt P17252); assay: Reaction Biology HotSpot kinase assay; assay type: biochemical; conditions: 500 nM compound; for inhibition at 0.5 µM: read-out: Percentage kinase inhibition PKCa
How it was run: as §3

FLT1/VEGFR1 = FLT1/VEGFR1 (Homo sapiens (Human), UniProt P17948); assay: Reaction Biology HotSpot kinase assay; assay type: biochemical; conditions: 500 nM compound; for inhibition at 0.5 µM: read-out: Percentage kinase inhibition FLT1/VEGFR1
How it was run: as §3

BTK = BTK (Homo sapiens (Human), UniProt Q06187); assay: Reaction Biology HotSpot kinase assay; assay type: biochemical; conditions: 500 nM compound; for inhibition at 0.5 µM: read-out: Percentage kinase inhibition BTK
How it was run: as §3

FLT4/VEGFR3, sequence (P35916 25-1363): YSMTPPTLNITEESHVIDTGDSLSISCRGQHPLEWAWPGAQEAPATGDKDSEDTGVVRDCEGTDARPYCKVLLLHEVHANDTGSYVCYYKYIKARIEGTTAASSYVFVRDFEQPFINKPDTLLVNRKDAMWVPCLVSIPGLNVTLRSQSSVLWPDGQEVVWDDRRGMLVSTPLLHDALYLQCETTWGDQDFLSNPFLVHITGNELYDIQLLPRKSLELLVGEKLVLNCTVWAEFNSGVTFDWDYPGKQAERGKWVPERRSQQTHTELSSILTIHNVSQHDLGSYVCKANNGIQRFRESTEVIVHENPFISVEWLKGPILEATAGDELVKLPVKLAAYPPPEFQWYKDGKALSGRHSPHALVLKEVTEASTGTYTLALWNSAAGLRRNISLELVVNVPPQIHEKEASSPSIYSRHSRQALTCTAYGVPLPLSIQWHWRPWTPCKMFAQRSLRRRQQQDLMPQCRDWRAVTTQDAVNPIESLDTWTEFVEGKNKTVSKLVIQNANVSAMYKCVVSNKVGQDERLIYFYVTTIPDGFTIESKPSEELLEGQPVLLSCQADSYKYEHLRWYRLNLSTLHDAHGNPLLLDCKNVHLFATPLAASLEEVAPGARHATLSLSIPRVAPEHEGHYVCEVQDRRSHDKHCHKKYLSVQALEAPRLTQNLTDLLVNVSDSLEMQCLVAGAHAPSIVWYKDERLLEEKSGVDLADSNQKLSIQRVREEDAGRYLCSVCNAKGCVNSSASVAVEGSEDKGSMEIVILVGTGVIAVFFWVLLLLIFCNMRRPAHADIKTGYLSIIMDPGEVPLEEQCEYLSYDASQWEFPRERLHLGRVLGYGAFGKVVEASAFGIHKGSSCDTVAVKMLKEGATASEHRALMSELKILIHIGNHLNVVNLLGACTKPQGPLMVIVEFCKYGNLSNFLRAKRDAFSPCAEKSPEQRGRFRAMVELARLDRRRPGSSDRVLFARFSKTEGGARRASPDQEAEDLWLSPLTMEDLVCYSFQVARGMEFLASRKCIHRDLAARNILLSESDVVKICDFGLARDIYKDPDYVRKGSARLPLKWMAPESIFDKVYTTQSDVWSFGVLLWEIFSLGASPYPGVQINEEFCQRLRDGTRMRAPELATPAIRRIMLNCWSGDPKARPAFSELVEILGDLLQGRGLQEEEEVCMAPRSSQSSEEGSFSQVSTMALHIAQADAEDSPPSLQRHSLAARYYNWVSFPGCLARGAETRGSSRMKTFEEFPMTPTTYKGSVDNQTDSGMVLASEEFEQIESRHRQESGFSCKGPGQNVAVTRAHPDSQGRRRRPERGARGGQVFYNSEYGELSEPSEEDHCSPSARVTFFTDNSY
EPHB2, sequence (P29323 19-1055): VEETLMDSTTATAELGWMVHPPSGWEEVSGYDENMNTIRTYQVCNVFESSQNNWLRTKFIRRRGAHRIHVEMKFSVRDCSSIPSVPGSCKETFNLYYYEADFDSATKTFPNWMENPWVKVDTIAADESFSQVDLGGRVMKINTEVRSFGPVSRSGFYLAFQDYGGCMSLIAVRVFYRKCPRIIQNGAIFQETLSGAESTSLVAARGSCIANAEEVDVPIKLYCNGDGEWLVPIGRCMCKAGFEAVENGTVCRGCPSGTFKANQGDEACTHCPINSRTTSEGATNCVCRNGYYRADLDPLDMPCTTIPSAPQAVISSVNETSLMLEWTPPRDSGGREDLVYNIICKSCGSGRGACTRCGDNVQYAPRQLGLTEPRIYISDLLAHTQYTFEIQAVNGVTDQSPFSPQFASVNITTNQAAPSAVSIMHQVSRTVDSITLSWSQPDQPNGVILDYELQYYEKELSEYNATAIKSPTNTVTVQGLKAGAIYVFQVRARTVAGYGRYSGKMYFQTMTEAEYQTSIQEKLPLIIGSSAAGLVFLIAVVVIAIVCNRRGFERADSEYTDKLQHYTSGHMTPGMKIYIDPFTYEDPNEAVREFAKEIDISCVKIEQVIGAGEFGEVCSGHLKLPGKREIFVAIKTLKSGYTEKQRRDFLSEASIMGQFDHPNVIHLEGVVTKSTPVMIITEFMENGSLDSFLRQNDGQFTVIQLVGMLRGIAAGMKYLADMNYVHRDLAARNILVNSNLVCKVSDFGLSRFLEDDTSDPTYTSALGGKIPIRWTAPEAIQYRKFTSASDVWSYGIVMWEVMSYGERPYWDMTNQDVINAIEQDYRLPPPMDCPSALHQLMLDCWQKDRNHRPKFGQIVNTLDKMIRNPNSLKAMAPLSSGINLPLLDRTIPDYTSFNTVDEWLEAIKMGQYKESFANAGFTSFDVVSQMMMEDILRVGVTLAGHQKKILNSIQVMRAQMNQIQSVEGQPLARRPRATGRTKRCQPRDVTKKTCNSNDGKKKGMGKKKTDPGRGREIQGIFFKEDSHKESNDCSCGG
ALK, sequence (Q9UM73 19-1620): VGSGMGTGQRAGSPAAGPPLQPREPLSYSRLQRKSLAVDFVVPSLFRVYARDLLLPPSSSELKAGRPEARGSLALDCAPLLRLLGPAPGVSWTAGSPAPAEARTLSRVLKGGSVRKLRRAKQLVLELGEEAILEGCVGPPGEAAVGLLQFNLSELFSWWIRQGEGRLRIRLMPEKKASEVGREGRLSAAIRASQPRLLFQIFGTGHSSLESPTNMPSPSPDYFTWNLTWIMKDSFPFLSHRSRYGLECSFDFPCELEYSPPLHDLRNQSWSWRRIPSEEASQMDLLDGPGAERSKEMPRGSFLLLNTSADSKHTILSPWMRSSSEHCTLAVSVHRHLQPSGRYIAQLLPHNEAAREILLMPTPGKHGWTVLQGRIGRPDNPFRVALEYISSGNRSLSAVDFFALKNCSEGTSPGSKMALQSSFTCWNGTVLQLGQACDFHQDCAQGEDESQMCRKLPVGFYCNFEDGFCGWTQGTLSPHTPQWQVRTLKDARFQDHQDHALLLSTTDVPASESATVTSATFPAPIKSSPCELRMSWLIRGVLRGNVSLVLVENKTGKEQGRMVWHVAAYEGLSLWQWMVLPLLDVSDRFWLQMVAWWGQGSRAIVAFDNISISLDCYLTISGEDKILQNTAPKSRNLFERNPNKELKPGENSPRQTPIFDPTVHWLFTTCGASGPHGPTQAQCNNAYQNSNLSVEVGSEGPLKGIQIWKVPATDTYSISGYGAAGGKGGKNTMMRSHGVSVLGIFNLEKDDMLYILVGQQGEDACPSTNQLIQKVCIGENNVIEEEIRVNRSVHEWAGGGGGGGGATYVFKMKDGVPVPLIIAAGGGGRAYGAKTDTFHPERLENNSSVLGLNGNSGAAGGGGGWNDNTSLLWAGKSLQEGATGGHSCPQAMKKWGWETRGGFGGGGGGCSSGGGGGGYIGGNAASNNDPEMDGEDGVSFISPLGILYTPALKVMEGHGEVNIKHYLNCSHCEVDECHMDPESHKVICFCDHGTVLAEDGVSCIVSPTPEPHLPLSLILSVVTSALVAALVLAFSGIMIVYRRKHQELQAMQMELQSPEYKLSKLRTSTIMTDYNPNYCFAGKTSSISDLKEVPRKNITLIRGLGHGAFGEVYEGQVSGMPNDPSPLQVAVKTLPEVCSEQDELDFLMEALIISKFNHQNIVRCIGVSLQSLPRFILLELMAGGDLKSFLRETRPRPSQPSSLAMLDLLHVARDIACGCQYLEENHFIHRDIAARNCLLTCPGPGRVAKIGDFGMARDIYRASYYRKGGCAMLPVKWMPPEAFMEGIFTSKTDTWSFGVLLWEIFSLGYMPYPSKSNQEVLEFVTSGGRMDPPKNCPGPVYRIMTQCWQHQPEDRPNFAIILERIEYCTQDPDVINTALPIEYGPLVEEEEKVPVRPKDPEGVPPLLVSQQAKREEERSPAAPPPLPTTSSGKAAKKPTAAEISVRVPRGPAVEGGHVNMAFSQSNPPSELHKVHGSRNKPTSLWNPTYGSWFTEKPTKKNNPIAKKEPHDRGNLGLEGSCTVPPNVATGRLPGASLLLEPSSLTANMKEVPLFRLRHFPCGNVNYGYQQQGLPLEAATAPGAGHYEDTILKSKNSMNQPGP
BRAF, sequence (P15056 whole entry): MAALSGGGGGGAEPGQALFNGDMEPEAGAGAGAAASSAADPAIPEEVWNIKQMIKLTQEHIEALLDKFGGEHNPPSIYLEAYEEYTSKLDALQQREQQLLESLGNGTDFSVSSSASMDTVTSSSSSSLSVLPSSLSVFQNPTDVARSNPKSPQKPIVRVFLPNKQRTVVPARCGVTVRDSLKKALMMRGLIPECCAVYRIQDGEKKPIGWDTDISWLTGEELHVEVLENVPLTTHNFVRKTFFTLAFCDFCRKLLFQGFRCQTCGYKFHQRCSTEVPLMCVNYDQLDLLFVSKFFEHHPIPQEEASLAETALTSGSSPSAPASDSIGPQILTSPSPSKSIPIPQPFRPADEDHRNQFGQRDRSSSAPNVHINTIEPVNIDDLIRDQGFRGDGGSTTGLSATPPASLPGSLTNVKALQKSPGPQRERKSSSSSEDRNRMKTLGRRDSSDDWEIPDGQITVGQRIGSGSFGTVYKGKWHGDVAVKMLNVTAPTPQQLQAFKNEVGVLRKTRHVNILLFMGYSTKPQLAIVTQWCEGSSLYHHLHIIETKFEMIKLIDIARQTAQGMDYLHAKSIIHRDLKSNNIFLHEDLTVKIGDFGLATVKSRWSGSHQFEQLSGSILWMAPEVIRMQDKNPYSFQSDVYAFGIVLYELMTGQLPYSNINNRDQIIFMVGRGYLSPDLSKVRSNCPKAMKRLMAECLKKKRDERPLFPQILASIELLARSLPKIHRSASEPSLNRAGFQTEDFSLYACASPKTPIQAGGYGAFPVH

CN(C)CC(O)CNC(=O)c1ccc(C#Cc2c(N)ncc3ccc(Cl)cc23)cc1 (stereo not shown) [HSM1702]
IC50 (MOLM14): 102 ± 11 nM | Percentage kinase inhibition FGFR1 (FGFR1): 11% | Percentage kinase inhibition AXL (AXL): 0% | Percentage kinase inhibition EGFR (EGFR): 0% | Percentage kinase inhibition c-MER (c-MER): 6% | Percentage kinase inhibition EPHB2 (EPHB2): 5% | Percentage kinase inhibition FGR (FGR): 6% | Percentage kinase inhibition PDGFRa (PDGFRa): 48% | Percentage kinase inhibition EPHA5 (EPHA5): 4% | Percentage kinase inhibition AKT1 (AKT1): 13% | Percentage kinase inhibition FLT4/VEGFR3 (FLT4/VEGFR3): 10% | Percentage kinase inhibition ERBB2/HER2 (ERBB2/HER2): 0% | Percentage kinase inhibition KDR/VEGFR2 (KDR/VEGFR2): 9% | Percentage kinase inhibition TRKB (TRKB): 40% | Percentage kinase inhibition YES/YES1 (YES/YES1): 13% | Percentage kinase inhibition c-Met (c-Met): 4% | Percentage kinase inhibition BRAF (BRAF): 3% | Percentage kinase inhibition TIE2/TEK (TIE2/TEK): 8% | Percentage kinase inhibition ALK (ALK): 7% | % inhibition of FLT3 activity (FLT3; 500 nM compound): 66% | Percentage kinase inhibition ROS/ROS1 (ROS/ROS1): 15% | Percentage kinase inhibition PKCa (PKCa): 3% | Percentage kinase inhibition FLT1/VEGFR1 (FLT1/VEGFR1): 0% | Percentage kinase inhibition BTK (BTK): 5%

Cc1ccc(C(=O)Nc2ccc(CN3CCN(C)CC3)c(C(F)(F)F)c2)cc1C#Cc1cc(N)nc2ccccc12 [HSN285]
IC50 (MOLM14; Homo sapiens, MOLM-14): 415 ± 6.9 nM | inhibition at 0.5 µM (FGFR1): 0% | inhibition at 0.5 µM (AXL): 0% | inhibition at 0.5 µM (EGFR): 0% | inhibition at 0.5 µM (c-MER): 3% | inhibition at 0.5 µM (EPHB2): 3% | inhibition at 0.5 µM (FGR): 0% | inhibition at 0.5 µM (PDGFRa): 30% | inhibition at 0.5 µM (EPHA5): 0% | inhibition at 0.5 µM (AKT1): 0% | inhibition at 0.5 µM (FLT4/VEGFR3): 6% | inhibition at 0.5 µM (ERBB2/HER2): 0% | inhibition at 0.5 µM (KDR/VEGFR2): 15% | inhibition at 0.5 µM (TRKB): 0% | inhibition at 0.5 µM (YES/YES1): 0% | inhibition at 0.5 µM (c-Met): 23% | inhibition at 0.5 µM (BRAF): 64% | inhibition at 0.5 µM (TIE2/TEK): 0% | inhibition at 0.5 µM (ALK): 1% | inhibition at 0.5 µM (FLT3; 500 nM compound): 28% | inhibition at 0.5 µM (ROS/ROS1): 0% | inhibition at 0.5 µM (PKCa): 6% | inhibition at 0.5 µM (FLT1/VEGFR1): 3% | inhibition at 0.5 µM (BTK): 0%

Cc1ccc(C(=O)Nc2ccc(CN3CCN(C)CC3)c(C(F)(F)F)c2)cc1C#Cc1c(N)ncc2ccc(Cl)cc12 [HSN286]
IC50 (MOLM14): 0.72 ± 0.02 nM | IC50 (MOLM14; Homo sapiens, MOLM-14): 0.7 nM | inhibition at 0.5 µM (FGFR1): 98% | inhibition at 0.5 µM (AXL): 3% | inhibition at 0.5 µM (EGFR): 44% | inhibition at 0.5 µM (c-MER): 0% | inhibition at 0.5 µM (EPHB2): 96% | inhibition at 0.5 µM (FGR): 100% | inhibition at 0.5 µM (PDGFRa): 93% | inhibition at 0.5 µM (EPHA5): 96% | inhibition at 0.5 µM (AKT1): 0% | inhibition at 0.5 µM (FLT4/VEGFR3): 98% | inhibition at 0.5 µM (ERBB2/HER2): 25% | inhibition at 0.5 µM (KDR/VEGFR2): 95% | inhibition at 0.5 µM (TRKB): 79% | inhibition at 0.5 µM (YES/YES1): 100% | inhibition at 0.5 µM (c-Met): 20% | inhibition at 0.5 µM (BRAF): 97% | inhibition at 0.5 µM (TIE2/TEK): 97% | inhibition at 0.5 µM (ALK): 0% | inhibition at 0.5 µM (FLT3): 97% | inhibition at 0.5 µM (ROS/ROS1): 10% | inhibition at 0.5 µM (PKCa): 5% | inhibition at 0.5 µM (FLT1/VEGFR1): 86% | inhibition at 0.5 µM (BTK): 41%
